Reference: publication PMC7451048 (Drug metabolism letters, 2019)

Legend:
OATP1B1 = molecular target: T1, OATP1B1 (Homo sapiens, UniProt Q9Y6L6)
T1 sequence (Q9Y6L6 1-691): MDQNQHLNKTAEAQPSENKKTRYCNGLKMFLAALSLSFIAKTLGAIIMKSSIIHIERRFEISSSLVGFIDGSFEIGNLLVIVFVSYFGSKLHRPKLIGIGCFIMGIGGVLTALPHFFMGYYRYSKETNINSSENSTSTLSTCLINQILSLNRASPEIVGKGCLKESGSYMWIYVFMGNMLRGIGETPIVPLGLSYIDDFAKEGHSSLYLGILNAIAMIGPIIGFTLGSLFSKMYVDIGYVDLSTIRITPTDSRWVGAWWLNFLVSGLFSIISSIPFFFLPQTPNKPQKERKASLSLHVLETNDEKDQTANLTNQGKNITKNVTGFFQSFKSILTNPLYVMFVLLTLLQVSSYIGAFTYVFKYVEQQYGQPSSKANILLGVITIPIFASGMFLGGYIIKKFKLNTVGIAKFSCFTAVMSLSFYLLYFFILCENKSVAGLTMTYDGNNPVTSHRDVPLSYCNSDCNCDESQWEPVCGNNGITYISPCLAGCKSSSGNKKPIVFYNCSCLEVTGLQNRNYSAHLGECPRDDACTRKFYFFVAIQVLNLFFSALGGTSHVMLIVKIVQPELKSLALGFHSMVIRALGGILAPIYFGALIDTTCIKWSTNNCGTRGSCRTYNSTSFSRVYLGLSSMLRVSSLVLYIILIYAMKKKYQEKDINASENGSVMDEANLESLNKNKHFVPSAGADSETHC

OATP2B1 = molecular target: T2, OATP2B1 (Homo sapiens, UniProt O94956); details: 3 min; for Inhibition of cellular uptake by RIF, OATP2B1-overexpressing cells: 20 μM RIF, BUP 5 μM, OHB 30 μM, TB 20 μM, EB 100 μM; for Apparent Vmax / Km: net cellular uptake, HEK/OATP2B1-overexpressing cells, mean ± SD; for Km: read-out: Apparent Km
T2 sequence (O94956 1-709): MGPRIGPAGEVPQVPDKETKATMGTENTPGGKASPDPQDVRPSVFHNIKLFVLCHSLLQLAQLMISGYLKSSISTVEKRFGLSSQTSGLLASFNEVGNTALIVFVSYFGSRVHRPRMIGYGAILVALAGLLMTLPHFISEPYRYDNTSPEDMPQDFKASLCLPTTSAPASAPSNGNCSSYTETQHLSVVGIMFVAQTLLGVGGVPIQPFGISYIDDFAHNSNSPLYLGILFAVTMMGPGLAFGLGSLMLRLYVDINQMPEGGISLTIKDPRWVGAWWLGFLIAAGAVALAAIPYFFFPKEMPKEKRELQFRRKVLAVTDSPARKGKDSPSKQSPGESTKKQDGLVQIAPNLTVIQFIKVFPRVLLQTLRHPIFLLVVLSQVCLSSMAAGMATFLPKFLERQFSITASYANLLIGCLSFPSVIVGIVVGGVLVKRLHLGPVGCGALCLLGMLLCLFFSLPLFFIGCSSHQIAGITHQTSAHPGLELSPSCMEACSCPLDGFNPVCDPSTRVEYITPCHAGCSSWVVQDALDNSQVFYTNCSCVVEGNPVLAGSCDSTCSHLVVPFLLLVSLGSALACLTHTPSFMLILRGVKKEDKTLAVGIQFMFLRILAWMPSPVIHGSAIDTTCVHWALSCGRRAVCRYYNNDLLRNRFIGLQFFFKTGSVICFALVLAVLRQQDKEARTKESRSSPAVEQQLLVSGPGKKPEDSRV

OATP1B3 = molecular target: T3, OATP1B3 (Homo sapiens, UniProt Q9NPD5)
T3 sequence (Q9NPD5 1-702): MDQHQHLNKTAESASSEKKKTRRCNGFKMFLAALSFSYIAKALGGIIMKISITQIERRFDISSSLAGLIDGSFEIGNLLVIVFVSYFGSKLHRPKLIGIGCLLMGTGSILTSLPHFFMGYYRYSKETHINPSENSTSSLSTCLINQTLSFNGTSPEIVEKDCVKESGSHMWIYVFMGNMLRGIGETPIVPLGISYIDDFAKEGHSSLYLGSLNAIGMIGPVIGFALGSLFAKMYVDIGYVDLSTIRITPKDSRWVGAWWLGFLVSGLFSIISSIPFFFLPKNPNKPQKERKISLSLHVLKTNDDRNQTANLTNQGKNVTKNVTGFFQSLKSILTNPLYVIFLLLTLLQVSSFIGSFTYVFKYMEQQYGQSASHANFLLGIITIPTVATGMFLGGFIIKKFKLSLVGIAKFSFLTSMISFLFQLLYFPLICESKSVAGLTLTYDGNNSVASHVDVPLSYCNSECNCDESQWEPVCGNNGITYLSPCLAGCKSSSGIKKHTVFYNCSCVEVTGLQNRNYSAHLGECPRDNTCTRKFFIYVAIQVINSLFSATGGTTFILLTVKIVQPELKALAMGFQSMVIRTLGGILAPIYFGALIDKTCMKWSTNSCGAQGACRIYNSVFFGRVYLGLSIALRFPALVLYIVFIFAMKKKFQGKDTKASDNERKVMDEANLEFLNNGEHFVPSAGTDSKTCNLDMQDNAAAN

OATP4A1 = molecular target: T4, OATP4A1 (Homo sapiens, UniProt Q96BD0); experiment: Cellular uptake assay, HEK/OATP4A1 vs HEK empty vector cells
T4 sequence (Q96BD0 1-722): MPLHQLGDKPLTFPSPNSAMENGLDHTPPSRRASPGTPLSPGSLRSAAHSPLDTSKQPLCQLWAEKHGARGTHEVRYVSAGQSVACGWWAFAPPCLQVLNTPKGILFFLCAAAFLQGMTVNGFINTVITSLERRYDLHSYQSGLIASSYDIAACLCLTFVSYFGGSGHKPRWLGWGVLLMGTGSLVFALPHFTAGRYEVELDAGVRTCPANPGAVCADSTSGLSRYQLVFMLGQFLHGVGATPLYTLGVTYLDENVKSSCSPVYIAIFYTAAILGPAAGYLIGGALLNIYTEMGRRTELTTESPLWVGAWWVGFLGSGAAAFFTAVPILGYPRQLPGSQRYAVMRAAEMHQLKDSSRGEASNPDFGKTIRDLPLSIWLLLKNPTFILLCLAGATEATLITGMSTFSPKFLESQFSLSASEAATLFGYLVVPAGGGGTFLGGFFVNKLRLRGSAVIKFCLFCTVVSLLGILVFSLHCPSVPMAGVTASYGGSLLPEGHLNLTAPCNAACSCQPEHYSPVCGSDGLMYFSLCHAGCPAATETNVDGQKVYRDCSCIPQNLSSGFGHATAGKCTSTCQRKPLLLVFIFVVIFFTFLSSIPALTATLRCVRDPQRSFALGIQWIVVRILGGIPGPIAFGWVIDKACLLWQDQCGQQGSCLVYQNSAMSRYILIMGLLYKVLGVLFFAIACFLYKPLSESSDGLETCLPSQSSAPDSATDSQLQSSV

Structure (SMILES)	Substrate of OATP1B1 (conclusion) (OATP1B1)	Inhibition of cellular uptake by RIF, OATP2B1-overexpressing cells (OATP2B1)	Apparent Vmax (OATP2B1)	Km (OATP2B1)	Substrate of OATP1B3 (conclusion) (OATP1B3)	Substrate of OATP4A1 (conclusion) (OATP4A1)
C[C@H](NC(C)(C)C)[C@@H](O)c1cccc(Cl)c1 [TB, Threohydrobupropion]	not substrates	no statistically significant differences	1368±72 pmol/mg protein/min	53 ± 9 µM	not substrates	not substrates
C[C@H]1NC(C)(C)CO[C@]1(O)c1cccc(Cl)c1 [OHB, Hydroxybupropion]	not substrates	no statistically significant differences	1641±98 pmol/mg protein/min	74 ± 12 µM	not substrates	not substrates
CC(NC(C)(C)C)C(O)c1cccc(Cl)c1 (stereo not drawn) [EB, Erythrohydrobupropion]	not substrates	no statistically significant differences	1752±192 pmol/mg protein/min	192 ± 35 µM	not substrates	not substrates
